Experimental data as given in publication PMC11943913, “Peptides from Harpadon nehereus Bone Ameliorate Sodium Palmitate-Induced HepG2 Lipotoxicity by Regulating Oxidative Stress and Lipid Metabolism” (Marine Drugs, 2025).
Entries after “also recorded” stand apart in the source; their conditions may differ.

Columns and labels:
[1] = test system: catalase (CAT); experiment: Catalase (CAT) activity in HepG2; type: cell-based
Experimental: (§1) After incubation, cells were treated with 100 μM of peptides for 4 h. After removing the media, PANa was added for 24 h of incubation. The levels of catalase (CAT), superoxide dismutase (SOD), glutathione peroxidase (GSH-Px), malondialdehyde (MDA), triacylglycerol (TG), total cholesterol (TCHO), low-density lipoprotein cholesterol (LDL-C), and high-density lipoprotein cholesterol (HDL-C) in the supernatant were determined according to the kit instructions.

[2] = test system: HepG2 cells; experiment: Observation of cell morphology; type: cell-based; settings: 350 µM PANa 24 h, inverted microscope, 200×
Experimental: Cells grown in culture flasks underwent digestion to create a single-cell suspension that was then diluted with fresh medium before being transferred into six-well plates at a final concentration of 4 × 10^5/well (2 mL/well). Peptides at concentrations of 100 μM were introduced prior to adding PANa for a 4 h incubation. Following another 24 h culture period, cells were examined and photographed using an inverted microscope.

[3] = test system: adipose triglyceride lipase (ATGL); experiment: Western blot ATGL; type: cell-based; settings: HepG2, Western blot
Experimental: (§2) After treatment, cells were washed with pre-chilled PBS and lysed with ice-cold lysis buffer for 30 min. The supernatant was collected after centrifugation at 12,000× g for 10 min and stored at −80 °C. Protein concentration was determined using a BCA protein assay kit. Equal amounts of protein (20–40 µg) were subjected to 10% sodium dodecyl sulfate-polyacrylamide gel electrophoresis (SDS-PAGE) and transferred to PVDF membranes (Polyvinylidene Fluoride, Merck, Darmstadt, Germany). Non-specific binding sites were blocked with 5% bovine serum albumin (BSA) solution at room temperature for 1 h, followed by incubation with the primary antibody at 4 °C overnight. After washing with TBST (3 times, 10 min/time), the membrane was incubated with the secondary antibody at room temperature for 1 h. Following further washing with TBST (3 times, 10 min/time), antibody signals were detected using a Western blot development system. The dilution ratios for the internal reference protein, vascular endothelial injury-related proteins, and oxidative stress-related pathway proteins were prepared according to the manufacturer’s instructions.

[4] = test system: total cholesterol (TCHO); experiment: Total cholesterol (TCHO) level in HepG2; type: cell-based
Experimental: as §1

[5] = test system: triacylglycerol (TG); experiment: Triacylglycerol (TG) level in HepG2; type: cell-based
Experimental: as §1

[6] = test system: NQO1; experiment: Western blot NQO1; type: cell-based; settings: HepG2, Western blot
Experimental: as §2

[7] = test system: glutathione peroxidase (GSH-Px); experiment: Glutathione peroxidase (GSH-Px) activity in HepG2; type: cell-based
Experimental: as §1

[8] = test system: HO-1; experiment: Western blot HO-1; type: cell-based; settings: HepG2, Western blot
Experimental: as §2

[9] = test system: HepG2 cells; experiment: CCK-8 proliferation of HepG2 with PANa; type: cell-based; settings: 1000 μM PANa, 24 h, CCK-8, p < 0.0001, 100% at 0 μM PANa
Experimental: After incubation, different concentrations (250, 500, 750, 1000 μmol/L) of PANa were added and treated for 24 h. The cell proliferation rates were measured according to the CCK-8 assay instructions.

[10] = test system: malondialdehyde (MDA); experiment: Malondialdehyde (MDA) level in HepG2; type: cell-based
Experimental: as §1

[11] = test system: phosphorylated ACC1 (p-ACC1); experiment: Western blot p-ACC1; type: cell-based; settings: HepG2, Western blot
Experimental: as §2

[12] = test system: high-density lipoprotein cholesterol (HDL-C); experiment: HDL-C level in HepG2; type: cell-based
Experimental: as §1

[13] = test system: HepG2 cells; experiment: Oil Red O staining (fat accumulation); type: cell-based; settings: 200×
Experimental: After incubation, the supernatants were discarded, and 2 mL of Oil Red O stationary solution was added to each well for 20–30 min. The stationary solution was subsequently washed away with 60% isopropyl alcohol. A freshly prepared Oil Red O staining solution was then applied for immersion dyeing lasting 10–20 min. After removing the staining solution with water, a Mayer hematoxylin staining solution was added for counterstaining the nucleus for 1–2 min before being discarded. An Oil Red O buffer solution was applied for 1 min and then discarded. […] The emission wavelength of fluorescence detection was 600 nm.

[14] = test system: Carnitine palmitoyl transferase 1 (CPT1); experiment: Western blot CPT1; type: cell-based; settings: HepG2, Western blot
Experimental: as §2

[15] = test system: fatty acid synthase (FASN); experiment: Western blot FASN; type: cell-based; settings: HepG2, Western blot
Experimental: as §2

[16] = test system: Nrf2; experiment: Western blot Nrf2; type: cell-based; settings: HepG2, Western blot
Experimental: as §2

[17] = test system: p-AMPKα; experiment: Western blot p-AMPKα; type: cell-based; settings: 350 µM PANa 24 h, HepG2, Western blot
Experimental: as §2

[18] = test system: low-density lipoprotein cholesterol (LDL-C); experiment: LDL-C level in HepG2; type: cell-based
Experimental: as §1

[19] = test system: hypertensive mice; settings: earlier work, ref [22]; cited from earlier work
Text: Harpadon nehereus, a nutrient-rich marine species indigenous to the Indo-Pacific region, remains underexploited despite its significant collagen content (18–22% wet weight). Harpadon nehereus serves as an economical source that is rich in protein and trace elements. Its proteins and derived peptides offer numerous health benefits including immune enhancement, blood pressure reduction, cardiovascular protection, and inflammation mitigation. In prior research, we successfully isolated three novel peptides LALFVPR (LR-7), KLHDEEVA (KA-8), and PSRILYG (PG-7) from the enzymatic hydrol ...

[20] = test system: proteins associated with lipid metabolism; experiment: Western blot, proteins associated with lipid metabolism overall; type: cell-based; settings: 100 μM peptide 4 h, then 350 µM PANa 24 h, HepG2, Western blot
Experimental: as §2

[21] = test system: HepG2; experiment: Lipid levels in HepG2 (TG, TCHO, LDL-C, HDL-C) overall; type: cell-based; settings: 100 μM peptide 4 h, then 350 µM PANa 24 h
Experimental: as §1

[22] = test system: HepG2 cells; experiment: CCK-8 proliferation of HepG2 with peptide alone; type: cell-based; settings: concentrations below 200 µM, 24 h, CCK-8, n = 3
Experimental: HepG2 cells were cultured in DMEM supplemented with penicillin at a concentration of 100 U/mL, streptomycin at 100 μg/mL, and fetal bovine serum at a volume ratio of 10% under conditions of 37 °C and 5% CO2. A total of 2 ×10^4 cells per well were seeded into a 96-well plate for overnight culture. The upper layer of medium was carefully aspirated, and 200 μL of different concentrations of oligopeptide solution (50 μM, 100 μM, 200 μM) prepared with cell complete medium was added to each well. Twenty-four hours later, the proliferation rate of the cells was measured according to the instructions of the CCK-8 kit, and the appropriate concentration of oligopeptide was screened out.

[23] = test system: superoxide dismutase (SOD); experiment: Superoxide dismutase (SOD) activity in HepG2; type: cell-based; settings: 100 μM peptide 4 h, then 350 µM PANa 24 h
Experimental: as §1

[24] = test system: pancreatic lipase; experiment: Pancreatic lipase activity inhibition; type: biochemical; settings: compared with orlistat (positive control); 4-nitrophenyl palmitate substrate, lipase 1.2 mg/mL, peptide 100 μM, Tris-HCl pH 8.0, 37 °C, absorbance 405 nm, three parallel wells
Experimental: A working substrate solution consisting of 4-nitrophenyl palmitate dissolved in sodium acetate solution (containing 1% Triton-X 100, 100 mL, 5 mM, pH 5.0) was prepared. Enzyme powder was dissolved in Tris-HCl buffer (pH 8.0, 37 °C). This mixture was incubated at 4 °C for 2 h before centrifugation at 5000 r/min for 5 min, yielding the supernatant used to prepare a pancreatic lipase solution of 1.2 mg/mL. Orlistat at a concentration of 1 mg/mL in Tris-HCl buffer (pH 8.0; 37 °C) was prepared alongside DMSO to reach a concentration of 350 μg/mL peptide solution. The peptide solution of 100 μM was prepared with Tris-HCl buffer (pH = 8.0, 37 °C). The absorbance was measured at 405 nm, and the inhibition rate was measured in parallel with three holes due to the methodology of Franco et al..

[25] = test system: HepG2 cells; experiment: Cell viability of PANa-induced HepG2 (CCK-8); type: cell-based; settings: 100 μM peptide 4 h, then 350 µM PANa 24 h, **** p < 0.0001 vs PANa group
Experimental: A total of 2 × 10^4 cells/well were inoculated in 96-well plates for culture at 37 °C and 5% CO2. Following this period, the cells received treatment with 200 μL medium containing 100 μM LR-7, KA-8, or PG-7 for 4 h before adding 350 μM PANa to each well. After incubation for an additional 24 h, the cell proliferation rates were assessed using the CCK-8 assay protocols.

[26] = 350 µM PANa 24 h, HepG2, p < 0.001
[27] = 350 µM PANa 24 h, HepG2, p < 0.0001
[28] = 100 μM peptide 4 h, then 350 µM PANa 24 h, HepG2
[29] = 100 μM peptide 4 h, then 350 µM PANa 24 h, HepG2, p < 0.0001
[30] = 100 μM peptide 4 h, then 350 µM PANa 24 h, vs PANa group, p < 0.0001
[31] = 100 μM peptide 4 h, then 350 µM PANa 24 h
[32] = 100 μM peptide 4 h, then 350 µM PANa 24 h, vs PANa group

For CCCCCCCCCCCCCCCC(=O)[O-].[Na+] [PANa, Sodium palmitate], the “decrease in CAT activity vs Con group” value [1, 26] was “more than 20%”, the “cell morphology, PANa group” value [2] was “appeared loose, with a marked decrease in cell count and showed signs of apoptosis” and the “ATGL expression, PANa vs Con group” value ([3]; 350 µM PANa 24 h, p < 0.05) was “markedly diminished”. For the same compound, the “increase in TCHO level vs Con group” value [4, 27] was 48.4%, the “increase in TG level vs Con group” value [5, 27] was 124.1% and the “NQO1 protein expression, PANa vs Con group” value ([6]; 350 µM PANa 24 h) was “significant reduction”. The “decrease in GSH-Px activity vs Con group” value [7, 26] was “more than 20%”, the “HO-1 protein expression, PANa vs Con group” value ([8]; 350 µM PANa 24 h) was “significant reduction” and the cell viability [9] was 33.3%. For the same compound, the “increase in MDA level vs Con group” value [10, 27] was 105%, the “p-ACC1 level, PANa vs Con group” value ([11]; 350 µM PANa 24 h, p < 0.01) was “significantly reduced” and the “decrease in HDL-C level vs Con group” value [12, 26] was 51.7%. For the same compound, the “fat droplet formation and accumulation, PANa vs Con group” value ([13]; 350 µM PANa 24 h) was “evident rise in fat droplet formation and accumulation”, the “CPT1 expression, PANa vs Con group” value ([14]; 350 µM PANa 24 h, p < 0.05) was “markedly diminished” and the “FASN expression, PANa vs Con group” value ([15]; 350 µM PANa 24 h) was “notable increase in FASN expression”. The “Nrf2 protein expression, PANa vs Con group” value ([16]; 350 µM PANa 24 h) was “significant reduction”, the “phosphorylation of AMPKα, PANa group” value [17] was “attenuate the phosphorylation of AMPKα” and the “increase in LDL-C level vs Con group” value [18, 27] was 58.3%.
In the case of “LALFVPR [LR-7, peptide from Harpadon nehereus bone collagen enzymatic hydrolysates]”, the “CAT activity, reversal of PANa-induced reduction” value [1, 28] is reported as “effectively reversed the reduction”, the “increase in CAT activity vs PANa group” value [1, 29] is reported as “over 100%” and the “enhancement of ATGL level” value [3, 30] is reported as 148.1%. For the same compound, the “protection against cardiovascular injuries in hypertensive mice” value [19] was “protective qualities against cardiovascular injuries in hypertensive mice”, the “TCHO, effect on PANa-induced increase” value [4, 28] was “notably reversed the PANa-induced increases” and the “abnormal expression of proteins associated with lipid metabolism by PANa (FASN, ATGL, CPT1, p-AMPKα)” value [20] was “significantly reversed”. For the same compound, the “lipid-lowering impact, ranking among the three peptides” value [21] was “the most effective lipid-lowering impact”, the “effect on apoptosis of HepG2 cells” value [22] was “no effect on the apoptosis of HepG2 cells” and the “SOD activity, reversal of PANa-induced reduction” value [23] was “effectively reversed the reduction”. For the same compound, the “inhibition of pancreatic lipase activity” value [24] was “superior inhibitory effects compared with orlistat”, the “TG, effect on PANa-induced increase” value [5, 28] was “notably reversed the PANa-induced increases” and the NQO1 protein level [6, 31] was “significant increases in the levels”. The “increase in NQO1 level” value [6, 30] was 120%, the “GSH-Px activity, reversal of PANa-induced reduction” value [7, 28] was “effectively reversed the reduction” and the “increase in GSH-Px activity vs PANa group” value [7, 29] was “over 100%”. For the same compound, the HO-1 protein level [8, 31] was “significant increases in the levels”, the “increase in HO-1 level” value [8, 30] was 131.7% and the MDA level [10, 28] was “decreased to values similar to those observed in the Con group; also recorded: significantly decreased the MDA levels”. For the same compound, the “p-ACC1 level vs PANa group” value [11, 31] was “p-ACC1 levels increased significantly”, the “enhancement of p-ACC1” value [11, 32] was 293.7% and the “HDL-C, effect on PANa-induced decrease” value [12, 28] was “notably reversed”. The “fat accumulation relative to PANa group” value [13, 31] was “most significant reduction in fat accumulation”, the “enhancement of CPT1 level” value [14, 30] was 134.7% and the “FASN expression vs PANa group” value [15, 31] was “FASN expression decreased”. For the same compound, the “reduction in FASN level” value [15, 32] was 59.6%, the “cell viability of PANa-exposed HepG2” value [25] was “notably enhanced the cell viability” and the Nrf2 protein level [16, 31] was “significant increases in the levels”. The “LDL-C, effect on PANa-induced increase” value [18, 28] was “notably reversed the PANa-induced increases”.
